Measurements published in ChEMBL document CHEMBL3137667, “[Drug-induced liver injury; fourteenth updated edition of the bibliographic database of liver injuries and related drugs]” (Gastroenterol Clin Biol, 2004).

Tests used:
[1] = Highest frequency of moderate liver toxicity observed during clinical trials, expressed as a percentage. [column '% BIOL' in source]; settings: human
[2] = Highest frequency of acute liver toxicity observed during clinical trials, expressed as a percentage. [column '% AIGUE' in source]; settings: human
[3] = Comments (NB not yet translated). [column 'COMMENTAIRES' in source]; settings: human
[4] = Times to onset, minimal and maximal, observed in the indexed observations. [column 'DELAI' in source]; settings: human
[5] = Proposed mechanism(s) of liver damage. [column 'MEC' in source]; settings: human
[6] = human, serum
[7] = human, serum; remark: listed apart in the source
[8] = human
[9] = human; remark: listed apart in the source
[10] = human; remark: listed apart in the source
[11] = human, serum, 4383 h
[12] = human; remark: listed apart in the source
[13] = human; remark: listed apart in the source
[14] = human; remark: listed apart in the source
[15] = human; remark: listed apart in the source
[16] = human; remark: listed apart in the source
[17] = human; remark: listed apart in the source
[18] = human; remark: listed apart in the source
[19] = Presence of at least one case with successful reintroduction. [column 'REINT' in source]; settings: human
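Throughout, for Hepatotoxicity (association with vascular disease): count of indexed literature references reporting vascular liver injury in humans, e.g. peliosis hepatitis, hepatic veno-occlusive disease or Budd-Chiari syndrome.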
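Throughout, for Hepatotoxicity (benign tumour): value is a count of indexed literature references citing a benign tumour confirmed by histopathology.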
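Throughout, for Hepatotoxicity (choleostasis): human cholestatic liver injury, shown by histopathology or by peak ALT or AST elevation over alkaline phosphatase ratio below 2, value counts indexed literature reports.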
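Throughout, for Hepatotoxicity (chronic liver disease): chronic liver injury confirmed by histopathology or persistently raised serum aminotransferase activity beyond 6 months, value given as the count of indexed literature references.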
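Throughout, for Hepatotoxicity (cirrhosis): value is a count of indexed literature references reporting cirrhosis confirmed by histopathology.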
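Throughout, for Hepatotoxicity (cytolytic): human cytolytic liver injury, shown by histopathology or by a ratio above 5 of peak ALT or AST elevation to alkaline phosphatase elevation, value counts indexed references.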
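Throughout, for Hepatotoxicity (granulomatous hepatitis): value is a count of indexed literature references reporting granulomatous liver disease confirmed by histopathology.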
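Throughout, for Hepatotoxicity (malignant tumour): malignant tumour confirmed by histopathology, value gives the count of indexed literature references reporting it.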
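Throughout, for Hepatotoxicity (severe hepatitis): human clinical data: severe hepatitis, meaning potentially life-threatening liver failure or clinically observed cases, the value counts how many indexed literature references report it.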
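Throughout, for Hepatotoxicity (steatosis): steatosis confirmed by histopathology, value is the count of indexed references.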

Row | Structure (SMILES) | Hepatotoxicity (moderate) [1] | Hepatotoxicity (acute) [2] | Hepatotoxicity (comment) [3] | Hepatotoxicity (time to onset) [4] | Hepatotoxicity (mechanism) [5] | Hepatotoxicity (moderate) [6] | Hepatotoxicity (acute) [7] | Hepatotoxicity (cytolytic) [8] | Hepatotoxicity (choleostasis) [9] | Hepatotoxicity (severe hepatitis) [10] | Hepatotoxicity (chronic liver disease) [11] | Hepatotoxicity (cirrhosis) [12] | Hepatotoxicity (granulomatous hepatitis) [13] | Hepatotoxicity (association with vascular disease) [14] | Hepatotoxicity (steatosis) [15] | Hepatotoxicity (malignant tumour) [16] | Hepatotoxicity (benign tumour) [17] | Hepatotoxicity (animal toxicity known) [18] | also measured
1 | CO/N=C(\C(=O)N[C@@H]1C(=O)N2C(C(=O)O)=C(CSc3nc(=O)c(=O)[nH]n3C)CS[C@H]12)c1csc(N)n1 [CEFTRIAXONE] | 30% | 4.6% | PSEUDOLITHIASE | 2 days - 25 days | Dose-dependant | 71 | 7 | 3 | 2 | 0 | 0 | 0 | 0 | 0 | 0 | 0 | 0 | yes | –
2 | O=C(O)c1cn(C2CC2)c2cc(N3CCNCC3)c(F)cc2c1=O [CIPROFLOXACIN] | – | – | DUCTOPENIE AC_ANTI-N/-ADN | 2 days - 6 months | Allergic, Dose-dependant | 114 | 21 | 7 | 12 | – | 1 | 0 | 0 | 0 | 1 | 0 | 0 | yes | Hepatotoxicity (moderate) ([1]; Liver): 46.4%; Hepatotoxicity (acute) ([2]; Liver): 0.2%; Hepatotoxicity (severe hepatitis) ([10]; Liver): 5
3 | CN(C)CCCN1c2ccccc2CCc2ccc(Cl)cc21 [CLOMIPRAMINE] | 10.7% | 0% | RC/AMINEPTINE | 1 week - 4 years | Allergic | 11 | 6 | 3 | 2 | 0 | 0 | 0 | 0 | 0 | 0 | 0 | 0 | yes | –
4 | CC(=O)[C@@]1(O)CC[C@H]2[C@@H]3C=C(Cl)C4=CC(=O)[C@@H]5C[C@@H]5[C@]4(C)[C@H]3CC[C@@]21C [CYPROTERONE] | 20% | 13% | AC_ANTI-N/pCN | 4 days - 10 years | Dose-dependant | 4 | 21 | 20 | 3 | 13 | 1 | 1 | 0 | 0 | 0 | 5 | 1 | yes | –
5 | O=c1[nH]cc(F)c(=O)[nH]1 [FLUOROURACIL] | 61.2% | 25% | CHOLANGITE/IAH I/LEVAMISOLE | 1 month - 1 year | Dose-dependant, Toxic Metabolite | 15 | 4 | 2 | 1 | 2 | 0 | 1 | 0 | 1 | 4 | 0 | 0 | yes | –
6 | C=COCC(F)(F)F [FLUROXENE] | 30.4% | 0% | I/PHENOBARBITAL/PHENYTOINE | 1 day - 5 days | Toxic Metabolite | 2 | 4 | 3 | 0 | 2 | 0 | 0 | 0 | 0 | 0 | 0 | 0 | yes | –
7 | CC1(C)S[C@@H]2[C@H](NC(=O)Cc3ccccc3)C(=O)N2[C@H]1C(=O)O [PENICILLIN G] | 13.2% | 0% | CHOLESTASE_PROLONGEE CHOLANGITE AC_ANTI-N | 0.5 hour - 18 days | Allergic | 9 | 17 | 5 | 9 | 1 | 1 | 0 | 3 | 0 | 0 | 0 | 0 | yes | –
8 | CC1=C(/C=C/C(C)=C/C=C/C(C)=C/CO)C(C)(C)CCC1 [RETINOL] | – | – | I/ALCOOL | 11 days - 17.5 years | – | 8 | 0 | – | – | – | 26 | 22 | – | 10 | 22 | 0 | 0 | yes | Hepatotoxicity (moderate) ([1]; Liver): 33%; Hepatotoxicity (acute) ([2]; Liver): 0%; Hepatotoxicity (mechanism) ([5]; Liver): Dose-dependant; Hepatotoxicity (cytolytic) ([8]; Liver): 0; Hepatotoxicity (choleostasis) ([9]; Liver): 0; Hepatotoxicity (severe hepatitis) ([10]; Liver): 1; Hepatotoxicity (granulomatous hepatitis) ([13]; Liver): 0
9 | CC(=O)N[C@H]1[C@@H](O[C@H]2[C@H](O)[C@@H](O)[C@H](O[C@H]3[C@H](CS(=O)(=O)O)[C@@H](OS(=O)(=O)O)[C@@H](O[C@H]4[C@H](O)[C@@H](OS(=O)(=O)O)C(O)O[C@H]4C(=O)O)O[C@@H]3O)O[C@@H]2C(=O)O)O[C@H](COS(=O)(=O)O)[C@@H](O)[C@@H]1O (stereo partly specified) [SODIUM HEPARIN] | 90% | 0% | RUPTURE_HEPATIQUE | 2 days - 2 weeks | Dose-dependant | 20 | 4 | 3 | 1 | 1 | 0 | 0 | 0 | 0 | 0 | 0 | 0 | yes | –
10 | CN(C/C=C/C#CC(C)(C)C)Cc1cccc2ccccc12 [TERBINAFINE] | 36.7% | 0% | CHOLANGITE DUCTOPENIE CHOLESTASE_PROLONGEE | 1 week - 6 months | Reactive metabolite | 21 | 23 | 7 | 15 | 3 | 1 | 0 | 0 | 1 | 0 | 0 | 0 | yes | –
11 | N[C@@H]1C[C@H]1c1ccccc1.N[C@H]1C[C@@H]1c1ccccc1 [TRANYLCYPROMINE] | – | – | – | – | – | 0 | 2 | – | – | – | 0 | 0 | – | 0 | 0 | 0 | 0 | yes | Hepatotoxicity (moderate) ([1]; Liver): 0%; Hepatotoxicity (acute) ([2]; Liver): 0%; Hepatotoxicity (successful reintroduction) [19]: yes; Hepatotoxicity (cytolytic) ([8]; Liver): 2; Hepatotoxicity (choleostasis) ([9]; Liver): 2; Hepatotoxicity (severe hepatitis) ([10]; Liver): 0; Hepatotoxicity (granulomatous hepatitis) ([13]; Liver): 0
